Reference: US20050113459A1, “Compositions for diabetes” (priority 2002, published 2005)

Columns and labels:
[1] = tested on: rats; details: daily dose of 1,200 mg/Kg for 52 weeks; cited from earlier work
[2] = tested on: model GK rats having Type II diabetes; assay: Glucose tolerance test in model GK rats having Type II diabetes fed coenzyme Q10 feedstuff; format: in vivo, rat
Source text: (§1) The improvement effects of the reduced coenzyme Q10 and the oxidized coenzyme Q10 on the glucose tolerance were examined using model GK rats (5 weeks old, male) having Type II diabetes. The rats were fed ad libitum with a powdered feedstuff containing 0.1 percent by weight of the reduced coenzyme Q10 (containing 2 percent by weight of the oxidized coenzyme Q10) or a feedstuff containing 0.1 percent by weight of the oxidized coenzyme Q10. In order to avoid the reduced coenzyme Q10 in the feedstuff mixture from decreasing due to oxidation, the feedstuff was completely replaced with a new one every two days. The control group was fed with a powdered feedstuff free of coenzyme Q10. The glucose tolerance test was conducted four weeks and six weeks after the feeding of the feedstuff mixture was started (n=4 in each group). In the glucose tolerance test, a 50% glucose solution was orally administered at a dose of 4 ml/kg, and the blood glucose level was measured before the administration and 30 minutes, 60 minutes, 90 minutes, and 120 minutes after the administration. The blood glucose level in blood collected from the tail vein was determined with a simple blood glucose meter.

[3] = tested on: GK rats; assay: Blood glycosylated hemoglobin (hemoglobin A1c) level of GK rats fed for 12 weeks; format: in vivo, rat; details: GK rats fed for 12 weeks with 0.1 wt% in feedstuff
Source text: as §1
The blood glycosylated hemoglobin (hemoglobin Alc) level of GK rats fed for 12 weeks was measured as in EXAMPLE 1. […]

[4] = 0.1 wt% in feedstuff, after six weeks of administration
[5] = after four weeks and six weeks of administration

Row | SMILES | toxic effects in chronic toxicity test [1] | increase in blood glucose level 30 minutes after the glucose load, in comparison with the control group ([2]; 0.1 wt% in feedstuff, after four weeks of administration, oral glucose load) | glucose tolerance in comparison with that after four weeks [2, 4] | blood glucose level from about an hour after the glucose load, in comparison with the control group [2, 5] | Hemoglobin A1c level [3] [%] | blood glucose level in comparison with the oxidized coenzyme Q10 group ([2]; 0.1 wt% in feedstuff, after four weeks of administration, all measurement times beginning with 30 minutes after the glucose load) | blood glucose level ([2]; 0.1 wt% in feedstuff, after six weeks of administration, all measurement points of glucose tolerance test) [mg/dL] | increase in blood glucose level after glucose load ([2]; 0.1 wt% in feedstuff, after six weeks of administration, all measurement times) | blood glucose level 30 minutes after the peak, versus control group [2, 5]
1 | COC1=C(OC)C(=O)C(C/C=C(\C)CC/C=C(\C)CC/C=C(\C)CC/C=C(\C)CC/C=C(\C)CC/C=C(\C)CC/C=C(\C)CC/C=C(\C)CC/C=C(\C)CCC=C(C)C)=C(C)C1=O [coenzyme Q10] | no toxic effects | – | – | – | – | – | – | – | –
2 | COC1=C(OC)C(=O)C(C/C=C(\C)CC/C=C(\C)CC/C=C(\C)CC/C=C(\C)CC/C=C(\C)CC/C=C(\C)CC/C=C(\C)CC/C=C(\C)CC/C=C(\C)CCC=C(C)C)=C(C)C1=O [oxidized coenzyme Q10, reference compound] | – | significantly inhibited | further improvements | no large difference | 4.93 ± 0.42 | – | – | – | –
3 | COc1c(O)c(C)c(C/C=C(\C)CC/C=C(\C)CC/C=C(\C)CC/C=C(\C)CC/C=C(\C)CC/C=C(\C)CC/C=C(\C)CC/C=C(\C)CC/C=C(\C)CCC=C(C)C)c(O)c1OC [reduced coenzyme Q10] | – | – | improved to a greater extent | – | 4.17 ± 0.15 | sharply decreased | ≤ 200 | strongly inhibited | significantly lower
